Here are results for 6 compounds from ChEMBL document CHEMBL1145498, “A systematic interaction map of validated kinase inhibitors with Ser/Thr kinases” (Proc Natl Acad Sci U S A, 2007).

The target in experiment [1] is Serine/threonine-protein kinase pim-2 (Homo sapiens, UniProt Q9P1W9).
Experiment [2] has as its target Cyclin-dependent kinase 6 (Homo sapiens) (UniProt Q00534).
Experiment [3] concerns the target Cyclin-dependent kinase 2 (Homo sapiens, UniProt P24941).
Experiment [4] deals with T1, Serine/threonine-protein kinase 17A (Homo sapiens) (UniProt Q9UEE5).
T1 sequence (whole entry): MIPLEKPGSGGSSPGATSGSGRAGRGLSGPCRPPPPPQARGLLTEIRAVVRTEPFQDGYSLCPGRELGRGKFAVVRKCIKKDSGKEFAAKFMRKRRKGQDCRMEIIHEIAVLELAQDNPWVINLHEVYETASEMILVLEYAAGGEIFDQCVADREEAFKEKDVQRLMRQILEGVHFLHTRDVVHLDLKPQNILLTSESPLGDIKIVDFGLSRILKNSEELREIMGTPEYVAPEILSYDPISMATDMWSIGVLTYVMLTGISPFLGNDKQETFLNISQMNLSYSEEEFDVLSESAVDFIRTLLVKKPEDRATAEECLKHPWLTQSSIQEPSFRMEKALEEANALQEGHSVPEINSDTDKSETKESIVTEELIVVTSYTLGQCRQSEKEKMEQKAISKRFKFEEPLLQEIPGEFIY

Experiment [5] deals with T2, Mitogen-activated protein kinase kinase kinase 5 (Homo sapiens) (UniProt Q99683).
T2 sequence (whole entry): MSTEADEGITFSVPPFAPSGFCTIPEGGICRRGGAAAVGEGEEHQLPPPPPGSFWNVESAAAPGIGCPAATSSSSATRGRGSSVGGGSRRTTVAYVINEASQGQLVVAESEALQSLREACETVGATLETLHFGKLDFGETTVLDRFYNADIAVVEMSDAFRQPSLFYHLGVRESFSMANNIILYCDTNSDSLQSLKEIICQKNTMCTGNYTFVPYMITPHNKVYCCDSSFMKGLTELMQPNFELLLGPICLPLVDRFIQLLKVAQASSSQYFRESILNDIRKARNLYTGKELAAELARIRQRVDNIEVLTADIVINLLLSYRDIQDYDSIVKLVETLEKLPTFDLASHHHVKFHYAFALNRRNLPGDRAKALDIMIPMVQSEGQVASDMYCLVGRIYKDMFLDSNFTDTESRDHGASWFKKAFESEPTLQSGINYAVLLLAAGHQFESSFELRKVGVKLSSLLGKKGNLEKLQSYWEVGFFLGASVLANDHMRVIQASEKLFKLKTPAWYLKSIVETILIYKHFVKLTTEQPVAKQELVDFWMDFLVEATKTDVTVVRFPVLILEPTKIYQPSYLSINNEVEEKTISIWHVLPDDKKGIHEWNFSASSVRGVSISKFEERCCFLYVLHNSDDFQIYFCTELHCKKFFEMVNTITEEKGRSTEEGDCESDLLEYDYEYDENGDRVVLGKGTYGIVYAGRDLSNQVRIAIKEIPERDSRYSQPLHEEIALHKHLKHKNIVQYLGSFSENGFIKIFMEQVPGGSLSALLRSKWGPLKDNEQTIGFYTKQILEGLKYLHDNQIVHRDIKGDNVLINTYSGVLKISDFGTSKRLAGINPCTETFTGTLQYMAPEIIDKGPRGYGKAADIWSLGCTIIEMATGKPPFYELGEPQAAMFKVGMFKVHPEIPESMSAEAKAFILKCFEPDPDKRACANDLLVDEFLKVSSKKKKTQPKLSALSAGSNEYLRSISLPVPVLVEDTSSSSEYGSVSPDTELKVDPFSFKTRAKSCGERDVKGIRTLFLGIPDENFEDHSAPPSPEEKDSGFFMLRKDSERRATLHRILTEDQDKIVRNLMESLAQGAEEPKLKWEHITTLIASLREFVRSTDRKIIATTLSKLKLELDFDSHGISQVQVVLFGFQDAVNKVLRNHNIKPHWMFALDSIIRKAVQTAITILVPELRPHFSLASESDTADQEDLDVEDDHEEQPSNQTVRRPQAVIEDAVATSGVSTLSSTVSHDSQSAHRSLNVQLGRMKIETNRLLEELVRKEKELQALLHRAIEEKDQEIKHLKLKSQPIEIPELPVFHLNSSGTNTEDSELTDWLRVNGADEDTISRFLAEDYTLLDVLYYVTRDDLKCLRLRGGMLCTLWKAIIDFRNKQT

Experiment [6] deals with Ribosomal protein S6 kinase alpha-3 (Homo sapiens) (UniProt P51812).
Experiment [7] deals with Cyclin-dependent kinase-like 1 (Homo sapiens) (UniProt Q00532).
For experiment [8], the target named is Mitogen-activated protein kinase 6 (Homo sapiens) (UniProt Q16659).
Chain of Mitogen-activated protein kinase 6 (Homo sapiens) (Q16659 whole entry): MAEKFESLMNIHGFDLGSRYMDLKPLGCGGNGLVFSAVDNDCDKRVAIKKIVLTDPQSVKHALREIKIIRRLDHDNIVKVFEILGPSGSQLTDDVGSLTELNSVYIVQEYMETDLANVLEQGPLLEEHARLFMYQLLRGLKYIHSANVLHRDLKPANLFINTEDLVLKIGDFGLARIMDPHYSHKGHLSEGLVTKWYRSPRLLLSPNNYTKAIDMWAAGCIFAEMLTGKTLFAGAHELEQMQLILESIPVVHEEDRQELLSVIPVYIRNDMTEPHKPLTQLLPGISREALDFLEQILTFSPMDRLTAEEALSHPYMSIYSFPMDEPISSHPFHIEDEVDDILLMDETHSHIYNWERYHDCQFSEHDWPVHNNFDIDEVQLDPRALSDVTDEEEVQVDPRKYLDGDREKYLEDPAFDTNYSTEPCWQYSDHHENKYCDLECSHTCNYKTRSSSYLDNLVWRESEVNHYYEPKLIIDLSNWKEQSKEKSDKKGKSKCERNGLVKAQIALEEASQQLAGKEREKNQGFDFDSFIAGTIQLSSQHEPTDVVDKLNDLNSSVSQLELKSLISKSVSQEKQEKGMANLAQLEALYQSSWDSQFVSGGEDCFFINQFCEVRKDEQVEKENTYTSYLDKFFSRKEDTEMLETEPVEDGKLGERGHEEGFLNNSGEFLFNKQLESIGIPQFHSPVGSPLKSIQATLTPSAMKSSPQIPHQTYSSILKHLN
The target in experiment [9] is Glycogen synthase kinase-3 beta (Homo sapiens, UniProt P49841).
Chain of Glycogen synthase kinase-3 beta (P49841 whole entry, looked up): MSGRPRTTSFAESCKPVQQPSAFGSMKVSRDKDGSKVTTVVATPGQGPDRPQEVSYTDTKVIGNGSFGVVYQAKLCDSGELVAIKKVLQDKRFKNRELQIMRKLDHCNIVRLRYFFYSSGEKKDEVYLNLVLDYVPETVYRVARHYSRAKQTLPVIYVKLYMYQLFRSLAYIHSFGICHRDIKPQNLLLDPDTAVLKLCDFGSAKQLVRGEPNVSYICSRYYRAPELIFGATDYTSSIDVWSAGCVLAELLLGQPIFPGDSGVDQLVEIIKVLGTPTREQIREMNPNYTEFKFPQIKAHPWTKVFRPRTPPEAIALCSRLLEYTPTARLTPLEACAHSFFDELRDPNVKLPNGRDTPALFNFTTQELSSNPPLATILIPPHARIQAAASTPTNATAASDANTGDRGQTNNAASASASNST
Experiment [10] addresses Serine/threonine-protein kinase pim-1 (Homo sapiens) (UniProt P11309).
Experiment [11] deals with Casein kinase I isoform gamma-1 (Homo sapiens) (UniProt Q9HCP0).
Experiment [12] addresses TRAF2 and NCK-interacting protein kinase (Homo sapiens) (UniProt Q9UKE5).
The target in experiment [13] is Serine/threonine-protein kinase 26 (Homo sapiens) (UniProt Q9P289).
Experiment [14] has as its target Calcium/calmodulin-dependent protein kinase type II subunit alpha (Homo sapiens) (UniProt Q9UQM7).
The target in experiment [15] is Serine/threonine-protein kinase 16 (Homo sapiens) (UniProt O75716).
Chain of Serine/threonine-protein kinase 16 (Homo sapiens) (O75716 whole entry): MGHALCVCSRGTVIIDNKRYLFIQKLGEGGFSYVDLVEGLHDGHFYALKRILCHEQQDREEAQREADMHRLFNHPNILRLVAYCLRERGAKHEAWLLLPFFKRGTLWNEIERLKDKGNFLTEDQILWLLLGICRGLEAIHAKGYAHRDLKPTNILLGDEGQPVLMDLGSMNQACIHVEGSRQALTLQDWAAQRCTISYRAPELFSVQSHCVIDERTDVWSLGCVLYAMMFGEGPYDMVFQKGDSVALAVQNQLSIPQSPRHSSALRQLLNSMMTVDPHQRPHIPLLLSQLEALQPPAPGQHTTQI
The target of experiment [16] is Dual specificity protein kinase CLK2 (Homo sapiens) (UniProt P49760).
The target in experiment [17] is Serine/threonine-protein kinase VRK2 (Homo sapiens) (UniProt Q86Y07).
In experiment [18] the target is Casein kinase I isoform gamma-2 (Homo sapiens) (UniProt P78368).
For experiment [19], the target named is Serine/threonine-protein kinase OSR1 (Homo sapiens) (UniProt O95747).
Chain of Serine/threonine-protein kinase OSR1 (Homo sapiens) (O95747 2-527 limits assumed): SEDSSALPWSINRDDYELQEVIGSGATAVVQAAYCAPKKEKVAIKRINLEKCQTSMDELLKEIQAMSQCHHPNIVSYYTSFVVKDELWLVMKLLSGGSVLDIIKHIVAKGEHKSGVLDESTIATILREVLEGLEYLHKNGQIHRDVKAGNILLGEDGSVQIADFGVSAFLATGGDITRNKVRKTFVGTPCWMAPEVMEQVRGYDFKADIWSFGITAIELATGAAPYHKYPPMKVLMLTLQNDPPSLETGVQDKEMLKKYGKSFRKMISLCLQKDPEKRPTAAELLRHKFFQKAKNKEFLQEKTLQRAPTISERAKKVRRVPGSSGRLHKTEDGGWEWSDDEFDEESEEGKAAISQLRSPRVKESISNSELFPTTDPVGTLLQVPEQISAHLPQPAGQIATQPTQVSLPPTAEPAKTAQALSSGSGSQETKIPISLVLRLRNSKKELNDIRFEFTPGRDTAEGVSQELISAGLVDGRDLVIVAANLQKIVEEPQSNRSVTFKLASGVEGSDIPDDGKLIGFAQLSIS
Experiment [20] has as its target Serine/threonine-protein kinase PAK 6 (Homo sapiens) (UniProt Q9NQU5).
In experiment [21] the target is Calcium/calmodulin-dependent protein kinase type II subunit beta (Homo sapiens) (UniProt Q13554).
Chain of Calcium/calmodulin-dependent protein kinase type II subunit beta (Homo sapiens) (Q13554 whole entry): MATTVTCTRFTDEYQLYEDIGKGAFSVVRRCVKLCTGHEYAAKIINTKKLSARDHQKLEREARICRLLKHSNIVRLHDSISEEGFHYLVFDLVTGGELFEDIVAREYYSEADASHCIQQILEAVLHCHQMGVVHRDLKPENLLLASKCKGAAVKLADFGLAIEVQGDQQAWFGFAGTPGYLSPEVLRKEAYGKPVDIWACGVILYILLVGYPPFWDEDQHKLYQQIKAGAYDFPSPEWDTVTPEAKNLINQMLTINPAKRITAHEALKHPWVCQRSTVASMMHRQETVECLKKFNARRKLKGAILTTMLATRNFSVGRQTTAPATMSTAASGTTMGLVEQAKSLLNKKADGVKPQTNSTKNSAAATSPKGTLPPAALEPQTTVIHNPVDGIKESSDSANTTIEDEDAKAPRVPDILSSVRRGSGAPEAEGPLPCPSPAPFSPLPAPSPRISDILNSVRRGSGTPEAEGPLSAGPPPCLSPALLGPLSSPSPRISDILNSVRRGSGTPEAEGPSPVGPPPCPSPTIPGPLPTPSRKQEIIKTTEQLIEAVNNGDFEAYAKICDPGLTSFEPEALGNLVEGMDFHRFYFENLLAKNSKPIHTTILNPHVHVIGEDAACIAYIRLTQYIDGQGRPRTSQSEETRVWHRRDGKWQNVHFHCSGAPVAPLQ

Chain of Calcium/calmodulin-dependent protein kinase type II subunit alpha (Homo sapiens) (Q9UQM7 whole entry): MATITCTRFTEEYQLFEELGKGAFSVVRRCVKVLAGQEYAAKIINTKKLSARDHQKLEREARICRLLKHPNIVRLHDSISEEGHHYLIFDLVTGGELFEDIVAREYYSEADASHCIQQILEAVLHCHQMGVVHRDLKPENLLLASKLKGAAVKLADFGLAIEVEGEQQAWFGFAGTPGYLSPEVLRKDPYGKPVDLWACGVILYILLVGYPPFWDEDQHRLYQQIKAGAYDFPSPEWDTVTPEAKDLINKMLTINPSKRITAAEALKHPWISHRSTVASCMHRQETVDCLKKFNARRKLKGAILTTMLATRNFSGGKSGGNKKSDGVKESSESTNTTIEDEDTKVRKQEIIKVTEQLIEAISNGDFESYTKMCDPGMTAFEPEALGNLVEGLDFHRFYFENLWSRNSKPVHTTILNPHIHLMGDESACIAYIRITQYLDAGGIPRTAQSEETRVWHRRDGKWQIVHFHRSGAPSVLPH
Chain of Serine/threonine-protein kinase pim-2 (Q9P1W9 whole entry, looked up): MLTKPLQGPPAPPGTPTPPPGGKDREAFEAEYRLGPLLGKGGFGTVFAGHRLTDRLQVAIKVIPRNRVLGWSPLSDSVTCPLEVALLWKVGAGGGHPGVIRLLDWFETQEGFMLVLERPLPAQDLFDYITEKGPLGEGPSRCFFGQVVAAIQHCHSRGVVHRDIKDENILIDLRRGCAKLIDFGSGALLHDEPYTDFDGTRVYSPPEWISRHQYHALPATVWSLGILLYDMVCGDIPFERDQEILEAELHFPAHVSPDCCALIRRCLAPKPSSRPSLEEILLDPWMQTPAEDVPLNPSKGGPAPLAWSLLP
Chain of TRAF2 and NCK-interacting protein kinase (Homo sapiens) (Q9UKE5 whole entry, looked up): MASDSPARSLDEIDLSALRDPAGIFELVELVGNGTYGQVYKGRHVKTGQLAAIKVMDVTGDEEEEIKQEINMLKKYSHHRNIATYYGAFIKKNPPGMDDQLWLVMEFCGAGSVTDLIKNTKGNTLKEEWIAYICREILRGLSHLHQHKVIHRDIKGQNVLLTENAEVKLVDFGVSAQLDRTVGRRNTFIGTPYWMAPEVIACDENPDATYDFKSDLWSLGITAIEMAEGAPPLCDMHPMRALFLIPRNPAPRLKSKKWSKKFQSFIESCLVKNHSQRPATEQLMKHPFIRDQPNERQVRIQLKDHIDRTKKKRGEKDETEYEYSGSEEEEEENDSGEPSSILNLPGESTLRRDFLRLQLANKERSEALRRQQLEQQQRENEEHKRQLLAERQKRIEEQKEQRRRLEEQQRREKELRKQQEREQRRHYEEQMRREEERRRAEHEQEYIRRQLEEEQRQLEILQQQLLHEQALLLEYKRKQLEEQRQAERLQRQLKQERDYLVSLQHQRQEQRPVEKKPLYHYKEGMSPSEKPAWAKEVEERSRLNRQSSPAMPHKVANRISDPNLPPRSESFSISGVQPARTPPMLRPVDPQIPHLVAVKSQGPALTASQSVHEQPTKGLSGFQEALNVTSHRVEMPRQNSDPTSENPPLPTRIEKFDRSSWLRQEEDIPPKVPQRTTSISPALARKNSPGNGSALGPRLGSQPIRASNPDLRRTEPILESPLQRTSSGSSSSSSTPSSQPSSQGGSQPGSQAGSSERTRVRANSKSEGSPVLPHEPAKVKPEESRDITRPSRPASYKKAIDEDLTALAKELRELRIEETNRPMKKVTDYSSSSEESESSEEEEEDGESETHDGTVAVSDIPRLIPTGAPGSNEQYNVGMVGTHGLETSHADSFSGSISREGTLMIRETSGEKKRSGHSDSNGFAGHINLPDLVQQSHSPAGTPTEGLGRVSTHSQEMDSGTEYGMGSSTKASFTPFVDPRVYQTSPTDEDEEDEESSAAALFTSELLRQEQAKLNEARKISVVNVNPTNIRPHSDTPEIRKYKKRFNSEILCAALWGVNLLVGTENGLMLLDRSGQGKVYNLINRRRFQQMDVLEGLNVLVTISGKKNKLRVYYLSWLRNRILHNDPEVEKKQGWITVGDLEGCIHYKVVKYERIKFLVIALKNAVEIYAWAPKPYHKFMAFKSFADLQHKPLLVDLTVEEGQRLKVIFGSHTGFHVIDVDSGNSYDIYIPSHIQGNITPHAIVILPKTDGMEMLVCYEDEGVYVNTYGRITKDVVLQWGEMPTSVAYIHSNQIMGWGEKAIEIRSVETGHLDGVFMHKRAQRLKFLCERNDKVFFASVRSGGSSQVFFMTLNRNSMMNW

The term ΔTm denotes the shift of the melting midpoint relative to a reference. Take `C[S+]([O-])c1ccc(-c2nc(-c3ccc(F)cc3)c(-c3ccncc3)[nH]2)cc1` (stereo unspecified) [SB-203580]: the thermal shift (ΔTm) in experiment [1] is 0 °C; in experiment [2], -0.1 °C; in experiment [3] it was -0.1 °C; in [4], 0 °C; in experiment [5] it was 0.3 °C; in experiment [6], -0.2 °C. The ΔTm in [7] is -0.4 °C; in experiment [8] it was 0 °C; in [9], 3.5 °C; in [10], -2.1 °C; in experiment [11], 0.8 °C; in experiment [12] it was 2 °C. For the same compound, the ΔTm in experiment [13] is -0.5 °C; in experiment [14] it was 0.3 °C; in [15], 0.4 °C; in experiment [16] it was 0.2 °C; in [17], 0.6 °C; in [18], 0.7 °C. The ΔTm in [19] was -0.2 °C; in experiment [20] it was 0 °C; in experiment [21] it was 0 °C.
Turning to `CN(C)S(=O)(=O)c1ccc2c(c1)/C(=C/c1cc3c([nH]1)CCCC3)C(=O)N2`, the shift in melting temperature (ΔTm) was 0.4 °C in experiment [1]; -0.9 °C in experiment [2]; 2.3 °C in experiment [3]; 3.3 °C in experiment [4]; 1.2 °C in [5]; -0.1 °C in experiment [6]. Moreover, the shift in melting temperature (ΔTm) in [7] was 0 °C; in experiment [8], 0.6 °C; in experiment [9] it was -0.3 °C; in experiment [10], 0.5 °C; in experiment [11], 0.9 °C; in experiment [12], 4.2 °C. The shift in melting temperature (ΔTm) in experiment [13] was found to be 6.3 °C; in experiment [14], 3 °C; in experiment [15], 0.3 °C; in experiment [16] it was 4.8 °C; in [17] it was 0.4 °C; in experiment [18], 0.1 °C. Moreover, the shift in melting temperature (ΔTm) is 2.2 °C in experiment [19], -4.4 °C in [20] and 2.3 °C in [21].
As to `N=C(N)NCCNS(=O)(=O)c1cccc2cnccc12`, the ΔTm in [1] was found to be 0.6 °C; in experiment [2] it was 0 °C; in experiment [3], 0.3 °C; in experiment [4], 0.6 °C; in [5], 0.1 °C; in experiment [6], 0.6 °C. Moreover, the thermal shift (ΔTm) in experiment [7] is 0 °C; in experiment [8], 0.4 °C; in experiment [9], 0.4 °C; in [10], -0.4 °C; in [11], -0.3 °C; in [12], 0.1 °C. Moreover, the thermal shift (ΔTm) in experiment [13] was -0.3 °C; in experiment [14] it was 0.3 °C; in experiment [15], 0.3 °C; in experiment [16], 0.1 °C; in experiment [17] it was 0.1 °C; in experiment [18], 0.4 °C. For the same compound, the thermal shift (ΔTm) in [19] was determined as 1.1 °C; in experiment [20], 0 °C; in experiment [21] it was 0.4 °C.
With `O=C(O)c1cc(N(Cc2ccccc2O)Cc2cc(O)ccc2O)ccc1O` [LAVENDUSTIN A], the thermal shift (ΔTm) in [1] was 1.1 °C; in experiment [2], 0.4 °C; in [3], 1.3 °C; in experiment [4], 0.1 °C; in experiment [5], 0.2 °C; in [6], 1.7 °C. The ΔTm was -0.3 °C in [7]; 0.8 °C in [8]; -0.1 °C in [9]; 1.1 °C in experiment [10]; 1.4 °C in [11]; 0 °C in experiment [12]. Besides, the shift in melting temperature (ΔTm) in [13] was 2.1 °C; in experiment [14], 1.3 °C; in experiment [15], 2.6 °C; in experiment [16], 0.5 °C; in experiment [17], -0.6 °C; in experiment [18], 0.6 °C. The thermal shift (ΔTm) in [19] is -0.1 °C; in [20] it was -0.3 °C; in experiment [21], -0.1 °C.
In the case of `O=C1Nc2ccc(S(=O)(=O)O)cc2/C1=C1/Nc2ccccc2/C1=N\O`, the ΔTm in experiment [1] stood at 3.5 °C; in experiment [2], 2.9 °C; in [3], 8.1 °C; in experiment [4], 9.8 °C; in experiment [5] it was 3.8 °C; in experiment [6], 6.1 °C. Further, the ΔTm is 3.1 °C in experiment [7]; 1.1 °C in [8]; 8.8 °C in [9]; 3.3 °C in [10]; 4 °C in experiment [11]; 2.4 °C in experiment [12]. The shift in melting temperature (ΔTm) in [13] came to 1.2 °C; in [14] it was 4.8 °C; in experiment [15] it was 4.9 °C; in [16], 3.7 °C; in experiment [17], 4 °C; in [18] it was 2.5 °C. Further, the ΔTm is 0.1 °C in experiment [19], 3.2 °C in [20] and 1.8 °C in [21].
Consider `N#CCCc1ccc2c(c1)-c1[nH]c3ccc([N+](=O)[O-])cc3c1CC(=O)N2` [ALSTERPAULLONE 2], for which the ΔTm stood at 1.4 °C in [1]; 3.2 °C in experiment [2]; 6.6 °C in [3]; 9.6 °C in [4]; 1.8 °C in experiment [5]; 1.4 °C in [6]. Moreover, the ΔTm in [7] was found to be 0.5 °C; in [8] it was 1.7 °C; in [9], 11.8 °C; in [10] it was 1.9 °C; in experiment [11], 2.4 °C; in experiment [12], 5.4 °C. The ΔTm in experiment [13] amounted to 3.5 °C; in experiment [14] it was 0.4 °C; in experiment [15] it was 3 °C; in experiment [16], 1.4 °C; in [17] it was 0.7 °C; in [18] it was 2 °C. Further, the thermal shift (ΔTm) turned out to be 0.8 °C in experiment [19], 2.3 °C in [20] and 0.2 °C in [21].
